Experimental data reported in paper PMC9072249 (Acta Pharmaceutica Sinica. B, 2021).

Test system: SD rat with neuropathic pain model induced by spared nerve injury (SNI)
Experiment: Neuropathic pain model induced by spared nerve injury
Assay type: in vivo
Conditions: SNI SD rats, po BID, 60 mg/kg/day, 20 days

`NCC1(CC(=O)O)CCCCC1` [gabapentin] was tested, and the “course of efficacy over the study” value was “gradually reduced”.
